The results in this text go back to PubChem BioAssay (NCI).

Among the test systems are SK-MEL-5 melanoma; NCI-H226 lung; A549 NSCLC; OVCAR-5 ovarian; OVCAR-3 ovarian; HL-60(TB) leukemia; M14 melanoma; SK-OV-3 ovarian; UO-31 renal; U251 CNS.
What all share (assay): growth of human tumour cells (NCI), 48 h

The structures appear in SMILES notation.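 Results reflect a 48-hour exposure of cells in 96-well plates to compound at five concentrations. GI50: concentration for 50% inhibition of growth. TGI: concentration producing complete growth inhibition.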

For the molecule `COc1ccc(/C=C/C(=O)c2c(O)ccc3c(C)c(C(=O)O)oc23)cc1`, the GI50 in the assay with SK-MEL-5 melanoma is 46.4 µM; with NCI-H226 lung, 45.1 µM; in the assay with A549 NSCLC, 91.9 µM; in the assay on OVCAR-5 ovarian, above 100 µM; in the assay on OVCAR-3 ovarian, 58.3 µM; in the assay with HL-60(TB) leukemia, 35.5 µM. Also, the GI50 in the assay with M14 melanoma is above 100 µM; in the assay on SK-OV-3 ovarian, above 100 µM; in the assay on UO-31 renal, above 100 µM; in the assay on U251 CNS, 33.2 µM. Further, the TGI in the assay on SK-MEL-5 melanoma, with NCI-H226 lung, with A549 NSCLC, in the assay with OVCAR-5 ovarian, with OVCAR-3 ovarian and in the assay with HL-60(TB) leukemia was above 100 µM each time. Further, the TGI with M14 melanoma, in the assay on SK-OV-3 ovarian, in the assay with UO-31 renal and in the assay with U251 CNS was above 100 µM in each case.

Consider `N#CC(C#N)=NNc1ccc2cn[nH]c2c1`, for which the TGI in the assay with SK-MEL-5 melanoma was above 100 µM; in the assay with NCI-H226 lung, above 100 µM; in the assay on A549 NSCLC, above 100 µM; in the assay with OVCAR-5 ovarian, above 100 µM; in the assay with OVCAR-3 ovarian, 76.1 µM; in the assay on HL-60(TB) leukemia, 45.3 µM. The TGI in the assay on M14 melanoma is above 100 µM; in the assay on SK-OV-3 ovarian, above 100 µM; in the assay on UO-31 renal it was 28.1 µM; with U251 CNS, above 100 µM.

In the case of `COc1cc(-c2cc3ncccc3c3nc(OCCN(C)C)c4cccnc4c23)cc(OC)c1OC`, the GI50 is 0.468 µM in the assay on SK-MEL-5 melanoma; 0.623 µM with NCI-H226 lung; 0.346 µM in the assay on A549 NSCLC; 1.34 µM with OVCAR-5 ovarian; 0.64 µM in the assay with OVCAR-3 ovarian; 1.25 µM in the assay with HL-60(TB) leukemia. Moreover, the GI50 was 0.485 µM in the assay on M14 melanoma, 0.458 µM with SK-OV-3 ovarian, 0.28 µM in the assay on UO-31 renal and 0.391 µM with U251 CNS. Besides, the TGI in the assay on SK-MEL-5 melanoma came to 1.96 µM; in the assay on NCI-H226 lung, 2.46 µM; in the assay on A549 NSCLC, 1.54 µM; with OVCAR-5 ovarian it was 3.68 µM; in the assay with OVCAR-3 ovarian it was 3.09 µM; in the assay with HL-60(TB) leukemia, 4.73 µM. The TGI in the assay on M14 melanoma was found to be 10.4 µM; in the assay with SK-OV-3 ovarian it was 2.18 µM; in the assay on UO-31 renal, 1.32 µM; in the assay with U251 CNS, 1.66 µM.

Take `O=C(Cn1c(C(=O)c2ccc(Cl)cc2)nc(-c2ccc(Cl)cc2)c1-c1ccc(Cl)cc1)c1ccccc1`: the GI50 in the assay on SK-MEL-5 melanoma, in the assay on NCI-H226 lung, with A549 NSCLC, in the assay on OVCAR-5 ovarian, with OVCAR-3 ovarian and in the assay on HL-60(TB) leukemia was above 100 µM each time. For the same molecule, the GI50 with M14 melanoma, in the assay with SK-OV-3 ovarian, in the assay with UO-31 renal and in the assay with U251 CNS was above 100 µM each time. The TGI in the assay with SK-MEL-5 melanoma, with NCI-H226 lung, in the assay with A549 NSCLC, with OVCAR-5 ovarian, in the assay with OVCAR-3 ovarian and with HL-60(TB) leukemia was above 100 µM in each case. The TGI with M14 melanoma, with SK-OV-3 ovarian, with UO-31 renal and in the assay with U251 CNS was above 100 µM throughout.

As to `O=[N+]([O-])c1ccc(/C=C/c2nc3ccc(Cl)cc3[nH]2)cc1`, the GI50 with SK-MEL-5 melanoma was 31.6 µM; with NCI-H226 lung, 45.9 µM; with A549 NSCLC, 37.8 µM; in the assay on OVCAR-5 ovarian, above 100 µM; with OVCAR-3 ovarian it was 22.4 µM; with HL-60(TB) leukemia it was above 100 µM. For the same molecule, the GI50 is above 100 µM with M14 melanoma, above 100 µM in the assay with SK-OV-3 ovarian, 30 µM in the assay on UO-31 renal and 16.3 µM in the assay with U251 CNS. For the same molecule, the TGI in the assay on SK-MEL-5 melanoma was above 100 µM; in the assay on NCI-H226 lung, above 100 µM; in the assay with A549 NSCLC, above 100 µM; in the assay on OVCAR-5 ovarian, above 100 µM; with OVCAR-3 ovarian it was 65.1 µM; in the assay with HL-60(TB) leukemia, above 100 µM. Also, the TGI with M14 melanoma was above 100 µM; with SK-OV-3 ovarian it was above 100 µM; with UO-31 renal, above 100 µM; in the assay with U251 CNS, 35.3 µM.

In the case of `ClCCCSSCCCCl`, the TGI is above 100 µM in the assay on SK-MEL-5 melanoma; above 100 µM with NCI-H226 lung; above 100 µM with A549 NSCLC; above 100 µM with OVCAR-5 ovarian; 97.1 µM with OVCAR-3 ovarian; 16 µM with HL-60(TB) leukemia. The TGI in the assay on M14 melanoma, in the assay on SK-OV-3 ovarian, with UO-31 renal and with U251 CNS was above 100 µM each time.

As to `CNC(=O)c1nn(C)c2c1C(C)(C)Cc1cnc(Nc3cccc(N4CCN(C)CC4)c3)nc1-2`, the GI50 is 0.954 µM with SK-MEL-5 melanoma; 0.237 µM with NCI-H226 lung; 0.34 µM in the assay with A549 NSCLC; 0.372 µM in the assay on OVCAR-5 ovarian; 0.505 µM in the assay with OVCAR-3 ovarian; 0.596 µM in the assay with HL-60(TB) leukemia. In addition, the GI50 with M14 melanoma was 0.204 µM; in the assay on SK-OV-3 ovarian, 0.21 µM; in the assay on UO-31 renal, 0.0881 µM; with U251 CNS it was 0.291 µM. Moreover, the TGI is 5.46 µM in the assay with SK-MEL-5 melanoma; 9.96 µM with NCI-H226 lung; 13.8 µM with A549 NSCLC; above 100 µM in the assay with OVCAR-5 ovarian; 13.4 µM in the assay on OVCAR-3 ovarian; 6.64 µM with HL-60(TB) leukemia. The TGI in the assay with M14 melanoma amounted to 11.8 µM; in the assay with SK-OV-3 ovarian, 7.44 µM; in the assay on UO-31 renal it was 1.96 µM; with U251 CNS, 12.8 µM.
